# Experimental data: the supplement of paper PMC4862054
# “And” between values parts separate entries of the source, which are not always exact repeats. Equal entries are not always repeated.
# Tested on: MDA-MB-436
# Assay: normalised viability (% of control), CellTiter-Blue; higher = more viable cells (about 100 = DMSO control)
# Settings: 100 nM; incubation time: 72 h
# Experimental: (§1)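 DSRT, CellTiter-Blue viability, 72 h incubation. Signal is normalised to DMSO and benzethonium chloride controls. Value is the normalised response at dose 3.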
row,Structure (SMILES),normalised viability [%]
1,Cc1ccc(-c2cc(C(F)(F)F)nn2-c2ccc(S(N)(=O)=O)cc2)cc1 [Celecoxib],92.3
2,NCCCNCCSP(=O)(O)O [Amifostine],107

# Tested on: MDA-MB-453
# Assay: as above
# Settings: 0.99 nM; incubation time: 72 h
# Experimental: as §1
row,Structure (SMILES),normalised viability [%]
1,CCN(CC)CCCC(C)Nc1c2ccc(Cl)cc2nc2ccc(OC)cc12 (stereo not given) [Mepacrine],98.4

# Same assay, conditions: 1 nM; incubation time: 72 h
row,Structure (SMILES),normalised viability [%]
1,O=C(/C=C/c1cccnc1)NCCCCC1CCN(C(=O)c2ccccc2)CC1 [FK-866],86.1
2,CC[C@@H]1C(=O)N(C)c2cnc(Nc3ccc(C(=O)NC4CCN(C)CC4)cc3OC)nc2N1C1CCCC1 [BI 2536],83.2

# Same assay, conditions: 10 nM; incubation time: 72 h
row,Structure (SMILES),normalised viability
1,Nc1nc(F)nc2c1ncn2[C@@H]1O[C@H](CO)[C@@H](O)[C@@H]1O [Fludarabine],109%
2,Nc1ncn([C@H]2C[C@H](O)[C@@H](CO)O2)c(=O)n1 [Decitabine],90.9% and 113%
3,O=C(O)C1(C(=O)O)CCC1.[NH2-].[NH2-].[Pt+2] [Carboplatin],103%
4,N#Cc1ccc(C(c2ccc(C#N)cc2)n2cncn2)cc1 [Letrozole],88%
5,C1CN1c1nc(N2CC2)nc(N2CC2)n1 [Triethylenemelamine],96.6%
6,CCCS(=O)(=O)Nc1ccc(F)c(C(=O)c2c[nH]c3ncc(-c4ccc(Cl)cc4)cc23)c1F [Vemurafenib],107%
7,O=C(O)C(=O)O.[NH-][C@@H]1CCCC[C@H]1[NH-].[Pt+2] [Oxaliplatin],114%
8,CCN(CC)CCCC(C)Nc1c2ccc(Cl)cc2nc2ccc(OC)cc12 (stereo not given) [Mepacrine],100%
9,Cc1ccc(-c2cc(C(F)(F)F)nn2-c2ccc(S(N)(=O)=O)cc2)cc1 [Celecoxib],103%
10,NCCCNCCSP(=O)(O)O [Amifostine],85.7%

# Tested on: MDA-MB-468
# Assay: as above
# Settings: 9.9 nM; incubation time: 72 h
# Experimental: as §1
row,Structure (SMILES),normalised viability [%]
1,CCN(CC)CCCC(C)Nc1c2ccc(Cl)cc2nc2ccc(OC)cc12 (stereo not given) [Mepacrine],110

# Same assay, conditions: 10 nM; incubation time: 72 h
row,Structure (SMILES),normalised viability [%]
1,O=C(/C=C/c1cccnc1)NCCCCC1CCN(C(=O)c2ccccc2)CC1 [FK-866],8.4
2,CC[C@@H]1C(=O)N(C)c2cnc(Nc3ccc(C(=O)NC4CCN(C)CC4)cc3OC)nc2N1C1CCCC1 [BI 2536],48.5

# Same assay, conditions: 100 nM; incubation time: 72 h
row,Structure (SMILES),normalised viability
1,Nc1nc(F)nc2c1ncn2[C@@H]1O[C@H](CO)[C@@H](O)[C@@H]1O [Fludarabine],109%
2,Nc1ncn([C@H]2C[C@H](O)[C@@H](CO)O2)c(=O)n1 [Decitabine],32.4% and 32.1%
3,O=C(O)C1(C(=O)O)CCC1.[NH2-].[NH2-].[Pt+2] [Carboplatin],98.8%
4,N#Cc1ccc(C(c2ccc(C#N)cc2)n2cncn2)cc1 [Letrozole],91.3%
5,C1CN1c1nc(N2CC2)nc(N2CC2)n1 [Triethylenemelamine],101%
6,CCCS(=O)(=O)Nc1ccc(F)c(C(=O)c2c[nH]c3ncc(-c4ccc(Cl)cc4)cc23)c1F [Vemurafenib],104%
7,O=C(O)C(=O)O.[NH-][C@@H]1CCCC[C@H]1[NH-].[Pt+2] [Oxaliplatin],107%
8,CCN(CC)CCCC(C)Nc1c2ccc(Cl)cc2nc2ccc(OC)cc12 (stereo not given) [Mepacrine],105%
9,Cc1ccc(-c2cc(C(F)(F)F)nn2-c2ccc(S(N)(=O)=O)cc2)cc1 [Celecoxib],111%
10,NCCCNCCSP(=O)(O)O [Amifostine],102%

# Tested on: MFM-223
# Assay: as above
# Settings: 9.9 nM; incubation time: 72 h
# Experimental: as §1
row,Structure (SMILES),normalised viability [%]
1,CCN(CC)CCCC(C)Nc1c2ccc(Cl)cc2nc2ccc(OC)cc12 (stereo not given) [Mepacrine],97

# Same assay, conditions: 10 nM; incubation time: 72 h
row,Structure (SMILES),normalised viability [%]
1,O=C(/C=C/c1cccnc1)NCCCCC1CCN(C(=O)c2ccccc2)CC1 [FK-866],23.2
2,CC[C@@H]1C(=O)N(C)c2cnc(Nc3ccc(C(=O)NC4CCN(C)CC4)cc3OC)nc2N1C1CCCC1 [BI 2536],41.8

# Same assay, conditions: 100 nM; incubation time: 72 h
row,Structure (SMILES),normalised viability
1,Nc1nc(F)nc2c1ncn2[C@@H]1O[C@H](CO)[C@@H](O)[C@@H]1O [Fludarabine],92.8%
2,Nc1ncn([C@H]2C[C@H](O)[C@@H](CO)O2)c(=O)n1 [Decitabine],79% and 95.3%
3,O=C(O)C1(C(=O)O)CCC1.[NH2-].[NH2-].[Pt+2] [Carboplatin],88%
4,N#Cc1ccc(C(c2ccc(C#N)cc2)n2cncn2)cc1 [Letrozole],74.9%
5,C1CN1c1nc(N2CC2)nc(N2CC2)n1 [Triethylenemelamine],93.8%
6,CCCS(=O)(=O)Nc1ccc(F)c(C(=O)c2c[nH]c3ncc(-c4ccc(Cl)cc4)cc23)c1F [Vemurafenib],87.5%
7,O=C(O)C(=O)O.[NH-][C@@H]1CCCC[C@H]1[NH-].[Pt+2] [Oxaliplatin],91.8%
8,CCN(CC)CCCC(C)Nc1c2ccc(Cl)cc2nc2ccc(OC)cc12 (stereo not given) [Mepacrine],97.9%
9,Cc1ccc(-c2cc(C(F)(F)F)nn2-c2ccc(S(N)(=O)=O)cc2)cc1 [Celecoxib],88.4%
10,NCCCNCCSP(=O)(O)O [Amifostine],77.7%

# Tested on: SK-BR-3
# Assay: as above
# Settings: 9.9 nM; incubation time: 72 h
# Experimental: as §1
row,Structure (SMILES),normalised viability [%]
1,CCN(CC)CCCC(C)Nc1c2ccc(Cl)cc2nc2ccc(OC)cc12 (stereo not given) [Mepacrine],99.8

# Same assay, conditions: 10 nM; incubation time: 72 h
row,Structure (SMILES),normalised viability [%]
1,O=C(/C=C/c1cccnc1)NCCCCC1CCN(C(=O)c2ccccc2)CC1 [FK-866],91.2
2,CC[C@@H]1C(=O)N(C)c2cnc(Nc3ccc(C(=O)NC4CCN(C)CC4)cc3OC)nc2N1C1CCCC1 [BI 2536],15.8

# Same assay, conditions: 100 nM; incubation time: 72 h
row,Structure (SMILES),normalised viability [%]
1,Nc1nc(F)nc2c1ncn2[C@@H]1O[C@H](CO)[C@@H](O)[C@@H]1O [Fludarabine],99.9
